# In US9045474B2, “Compounds and compositions for mitigating tissue damage and lethality” (The Regents of the University of California, priority 2010, dated 2015):
# Legend:
# [1] = Mitigation assay of analogs at +30 min and +60 min after 8 Gy IR; settings: FIG. 20
# Procedure: Fourteen analogs of Yel001 and Yel002, whose structures are shown in FIGS. 19A and 19B, are subject to tests in a mitigation assay at +30 min and +60 min after 8 Gy radiation (IR).
# [2] = tested on: C3H mice; assay: Mitigation of radiation-induced lethality in C3H mice (8Gy, LD100/30); settings: 8Gy
# Procedure: Radiomitigation studies were conduced by pre-treating C3H mice with the compounds of interest at as concentration of 75 mg/kg and at 24 hrs and 1 hr before an 8 Gy exposure. On a 5×24 mitigation treatment protocol mice were first lethally irradiated with 8 Gy and 24 hrs later received the first subcutaneous injection with the compound suspension with subsequent injections at 48, 72, 96, and 120 hrs. The concentration of the compound in the suspension was 75 mg/kg carrier with either 1N saline or phosphate buffer solution (PBS).
# C3H mice in the mitigation experiment were irradiated with 8Gy and then injected with 75 mg/kg 1 hr post exposure and then again 25 hrs post exposure.
smiles,measurement,setting,value
Cc1sc(NC(=O)CN(Cc2ccco2)C(=O)c2ccccc2)c(C(N)=O)c1C [CJ010],mitigation of IR damage,[1],consistently mitigates the IR damage
same,mitigation efficacy,[2]; 75 mg/kg s.c. 5×24 protocol,significantly mitigated IR-induced damages and death
same,survival at 30 days,"[2]; 75 mg/kg s.c. at 24, 48, 72, 96, 120 hrs (5×24)",75%
